Experiments:
[1] = molecular target: T1, human androgen receptor (AR) (Homo sapiens, UniProt P10275); test: Nuclear hormone receptor functional modulation assay (ARE-luciferase, HEK293), AR; assay type: cell-based
T1 construct: expressed in transfected cells; host or cells: HEK293, transient transfection (Fugene), CMV promoter plasmid
T1 sequence (P10275 1-920): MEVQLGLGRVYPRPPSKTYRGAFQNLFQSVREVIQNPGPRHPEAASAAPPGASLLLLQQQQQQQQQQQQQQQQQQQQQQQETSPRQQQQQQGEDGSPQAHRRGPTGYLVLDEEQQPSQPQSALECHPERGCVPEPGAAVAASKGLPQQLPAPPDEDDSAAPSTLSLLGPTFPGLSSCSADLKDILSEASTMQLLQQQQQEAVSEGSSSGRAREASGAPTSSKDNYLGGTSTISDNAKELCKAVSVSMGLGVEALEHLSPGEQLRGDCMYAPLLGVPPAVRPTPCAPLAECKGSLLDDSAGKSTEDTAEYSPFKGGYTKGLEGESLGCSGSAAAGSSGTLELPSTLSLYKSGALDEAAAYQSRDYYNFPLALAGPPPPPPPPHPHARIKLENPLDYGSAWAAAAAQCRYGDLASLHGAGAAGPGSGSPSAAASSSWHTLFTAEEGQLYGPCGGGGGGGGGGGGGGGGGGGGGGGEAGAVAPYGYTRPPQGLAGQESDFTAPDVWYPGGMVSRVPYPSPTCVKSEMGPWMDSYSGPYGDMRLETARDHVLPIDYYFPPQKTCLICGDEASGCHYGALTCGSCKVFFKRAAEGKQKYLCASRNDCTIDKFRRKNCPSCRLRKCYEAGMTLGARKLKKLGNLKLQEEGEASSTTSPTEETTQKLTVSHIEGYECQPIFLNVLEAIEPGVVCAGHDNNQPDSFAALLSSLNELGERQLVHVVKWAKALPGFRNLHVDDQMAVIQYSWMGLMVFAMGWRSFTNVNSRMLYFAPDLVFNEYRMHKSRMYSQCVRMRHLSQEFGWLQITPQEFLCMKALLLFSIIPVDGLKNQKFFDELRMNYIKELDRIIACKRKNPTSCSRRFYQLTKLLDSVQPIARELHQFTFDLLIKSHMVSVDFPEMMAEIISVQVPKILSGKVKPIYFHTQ
From the text: (§1) The solvents, reagents, and ligands employed in the functional assay are readily available from commercial sources, or can be prepared by one of ordinary skill in the art.
(§2) Human embryonic kidney HEK293 cells are transfected with steroid hormone receptor and reporter gene plasmids using Fugene™ (Roche Diganostics) transfection reagent. Briefly, the reporter plasmid containing two copies of probasin ARE (androgen response element 5′GGTTCTTGGAGTACT3′ (SEQ ID NO:1)) and TK(thymidine kinase) promoter upstream of the luciferase reporter cDNA, is transfected into HEK293 cells with a plasmid constitutively expressing human androgen receptor (AR) using viral CMV(cytomegalovirus) promoter. The reporter plasmid containing two copies of GRE (glucocorticoid response element 5′TGTACAGGATGTTCT′3 (SEQ ID NO:2)) and TK promoter upstream of the luciferase reporter cDNA is transfected with a plasmid constitutively expressing either human glucocorticoid receptor (GR), human mineralocorticoid receptor (MR), or human progesterone receptor (PR) using viral CMV promoter. Cells are transfected in T150 cm flasks in DMEM media with 5% charcoal-stripped Fetal Bovine Serum (FBS). […] In the antagonist mode for the assays, low concentrations of agonist for each respective receptor are added to the media (0.25 nM dexamethasone for GR, 0.3 nM of methyltrienolone for AR, 0.05 nM of promegestone for PR and 0.05 nM aldosterone for MR), and the ability of test compound to antagonize the agonist response is determined. After 24 hours of incubation with test compounds, cells are lysed and luciferase activity is determined using standard techniques.
(§3) Data are fitted to a four parameter-fit logistic curve fit to determine EC50 values. […] IC50 values may be determined similarly using antagonist mode assay data. Percent inhibitions may also be determined relative to the response in the presence of agonist alone, as described above.

[2] = molecular target: T2, human progesterone receptor (PR) (Homo sapiens, UniProt P06401); test: Nuclear hormone receptor functional modulation assay (GRE-luciferase, HEK293), PR; assay type: cell-based
T2 construct: expressed in transfected cells; host or cells: HEK293, transient transfection (Fugene), CMV promoter plasmid
T2 sequence (P06401 1-933): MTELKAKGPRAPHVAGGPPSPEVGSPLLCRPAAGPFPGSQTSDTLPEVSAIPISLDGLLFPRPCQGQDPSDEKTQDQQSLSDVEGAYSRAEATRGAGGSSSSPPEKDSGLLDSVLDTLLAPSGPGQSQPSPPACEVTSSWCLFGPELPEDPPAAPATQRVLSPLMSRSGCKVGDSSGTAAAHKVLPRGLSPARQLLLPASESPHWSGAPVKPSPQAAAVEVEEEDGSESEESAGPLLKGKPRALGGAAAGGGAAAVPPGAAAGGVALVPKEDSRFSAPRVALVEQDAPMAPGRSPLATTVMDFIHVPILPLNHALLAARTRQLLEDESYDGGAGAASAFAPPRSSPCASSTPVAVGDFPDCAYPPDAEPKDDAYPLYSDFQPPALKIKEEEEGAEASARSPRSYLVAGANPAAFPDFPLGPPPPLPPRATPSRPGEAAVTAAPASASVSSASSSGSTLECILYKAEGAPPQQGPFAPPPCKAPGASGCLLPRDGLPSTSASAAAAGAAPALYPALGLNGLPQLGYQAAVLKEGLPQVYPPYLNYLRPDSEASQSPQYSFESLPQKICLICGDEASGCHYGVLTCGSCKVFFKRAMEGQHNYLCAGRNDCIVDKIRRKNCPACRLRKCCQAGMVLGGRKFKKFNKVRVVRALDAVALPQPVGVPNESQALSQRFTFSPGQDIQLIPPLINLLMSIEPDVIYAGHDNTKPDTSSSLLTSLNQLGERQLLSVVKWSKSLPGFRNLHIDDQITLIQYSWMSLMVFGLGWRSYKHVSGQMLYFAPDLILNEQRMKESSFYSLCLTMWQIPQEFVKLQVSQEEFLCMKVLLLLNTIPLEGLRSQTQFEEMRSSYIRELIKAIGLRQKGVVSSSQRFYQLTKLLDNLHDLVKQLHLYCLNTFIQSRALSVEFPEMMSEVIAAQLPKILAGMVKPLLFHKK
From the text: as §1, §2, §3

[3] = In vitro assays of genotoxic potential
[4] = agonist mode, activating transcription
[5] = functional modulation, in words

## CC/C(=C1\c2ccc(Cl)cc2OCc2ncccc21)c1cccc(NS(C)(=O)=O)c1 [Compound (I), (E)-N-{3-[1-(8-Chloro-11H-10-oxa-1-aza-dibenzo[a,d]cyclohepten-5-ylidene)-propyl]-phenyl}-methanesulfonamide]
[1]; [4]
  EC50: > 10 µM
[1]; [5]
  modulation of gene expression mediated by AR: only limited activity
[1]; percent efficacy at 10 μM relative to 100 nM methyltrienolone, mean of 3
  AR % Eff.: 2.4%
[2]; [4]
  EC50: > 10 µM
[2]; [5]
  modulation of gene expression mediated by PR: only limited activity
[2]; percent efficacy at 10 μM relative to 30 nM promegestone, mean of 3
  PR % Eff.: 40.1%
[3]
  genotoxic potential: non-genotoxic
